# PMC7211193, “Evaluation of absorption, distribution, metabolism, and excretion of [^14C]-rucaparib, a poly(ADP-ribose) polymerase inhibitor, in patients with advanced solid tumors” (Investigational New Drugs, 2019)
# What was measured:
# Type in all cases: in vivo, human
# [1] = Metabolite identification by LC-MS/MS in plasma, urine and feces; details: F feces, P plasma, U urine
# Description: (§1) Metabolite profiling and identification were performed on an LC system (Agilent) coupled to an LTQ Orbitrap mass spectrometer (Thermo Electron, Waltham, MA, USA) in combination with offline TopCount (LC-MS-TopCount) or online Radiomatic 625TR (LC-MS-Radiomatic; PerkinElmer). Proposed structures of the metabolites were based on accurate mass (<5 ppm) and comparison of mass spectral data of parent compound rucaparib and metabolite standard M324. The Radiomatic 625TR flow detector, equipped with a 200 μL flow cell, was operated using scintillation cocktail (Ultima-Flo M) delivered at a flow rate of 1 mL/min. Chromatography was done using a Phenomenex (Torrance, CA, USA) Luna Phenyl-Hexyl column (250 × 2 mm, 5 μm, 100 Å) at ambient temperature during the sample analysis. The mobile phase was (A) 0.05% TFA in water and (B) 0.05% TFA in acetonitrile, with a 0.2 mL/min flow rate. The gradient was as follows: 5% B over 2.1 min, to 20% B in 1.0 min, to 35% B in 16.9 min, isocratic at 35% B for 5 min, to 95% B over 5 min, and reduced to 5% B over 1 min, with total run time 45 min.
# The LTQ Orbitrap mass spectrometer was equipped with an electrospray ionization interface and operated in positive ionization mode for metabolite profiling and identification. Mass spectra were acquired in full scan (MS) (m/z 150–1500) and data-dependent scan modes. Mass spectrometer parameter settings were: spray voltage, +5.0 kV; capillary temperature, 350 °C; sheath gas, 80 (arbitrary unit); auxiliary gas, 30 (arbitrary unit); activation Q, 0.25; activation time, 30 msec; resolution, 7500; and collision energy, 35 eV.
# The structures of the metabolites were identified by LC-MS/MS based on comparisons of mass spectral fragmentation patterns with those produced by the parent compound. Further confirmation of the identities of the metabolites was based on the elemental composition determined from accurate mass analyses using an Orbitrap high-resolution mass spectrometer.
# The structures of the major metabolites found in plasma, urine, and feces were also confirmed by comparisons with the synthetic reference standard M324.
# [2] = Safety assessment (CTCAE v4.03 adverse events)
# Description: The safety of rucaparib was evaluated during the study. The National Cancer Institute Common Terminology Criteria for Adverse Events (CTCAE) grading system (version 4.03) was used to describe the severity of the adverse events (AEs) that occurred. Clinical laboratory, vital sign, 12-lead ECG, and physical examinations were also part of the safety assessment.
# [3] = Metabolite profiling in pooled feces (LC-MS-Radiomatic); details: for % Dose in feces: pooled fecal homogenate, % of administered dose
# Description: For each patient, homogenized feces samples from different collection intervals were pooled in proportion to their sample weight in order to obtain a pooled sample covering 90% of the TRA recovered in feces. Aliquots of the pooled fecal samples were extracted at least twice with acetonitrile. The obtained supernatant was evaporated. The dried residues were reconstituted in 40% DMSO in water to obtain maximum recovery. An aliquot of the supernatant was analyzed for TRA to determine extraction efficiency, and the mean recovery was ≈75%. Aliquots of the supernatants were injected into the HPLC coupled to UV and radioactive detectors to obtain metabolite profiles. The sample supernatants were also analyzed using LC-MS to identify metabolites.
# as §1
# The abundance of unchanged rucaparib and metabolites identified in plasma, urine, and feces was determined as a percentage of the TRA in the analyzed samples. Percentage of the administered dose of rucaparib and metabolites was calculated in urine and feces (formula A). The concentration of rucaparib and its metabolites in plasma (ng Eq h/mL) was calculated based on the specific activity, TRA, and percentage of peaks (formula B). The AUC0-24h value of rucaparib and its major metabolite M324 in plasma was calculated using both Hamilton method (formula C) and linear trapezoidal method (formula D). • (A) %Doseofmetabolite=TRAinurineorfeces(dpm)÷TRAinadministereddose(dpm)×%metabolitesinmatrix • (B) Metaboliteconcentrationsinplasma(ngEq/mL)=TRAinplasma(dpm/mL)specificactivity(ngEq/dpm)×%metabolitesinthematrix • (C) Hamiltonmethod:AUC0−24h(ngEqh/mL)=concentrationinHamilton(AUC0−24h)pooledplasma(ngEq/mL)×24(h) • (D) Lineartrapezoidalmethod:AUC0−24h(ngEqh/mL)=C1h/2×1h+C1h+C4h/2×(4h−1h)+C4h+C8h/2×(8h−4h)+C8h+C24h/2×(24h−8h)
smiles,measurement,setting,value
"CNCc1ccc(-c2[nH]c3cc(F)cc4c3c2CCNC4=O)cc1 [Rucaparib, rucaparib]",Matrix in which identified,[1],"P, U, F"
same,Total treatment-emergent AEs (TEAEs),"[2]; events, in four of six patients, single oral 600 mg",five
same,"Relation, severity and seriousness of TEAEs",[2]; investigator assessment,"No TEAE was considered to be related to the study drug by the investigators, had a severity of more than CTCAE grade 2, led to a withdrawal of the patient, or was a serious AE"
same,Patients with TEAE vomiting,[2]; two events in two of six patients,33.3%
same,"% of dose in pooled fecal homogenate, Patient 01",[3]; Patient 01,50.6 % dose
same,"% of dose in pooled fecal homogenate, Patient 05",[3]; Patient 05,55.8 % dose
same,"% of dose in pooled fecal homogenate, Patient 06",[3]; Patient 06,70.1 % dose
same,"% of dose in pooled fecal homogenate, Patient 08",[3]; Patient 08,68.2 % dose
same,"% of dose in pooled fecal homogenate, Patient 09",[3]; Patient 09,71.8 % dose
same,% Peak (of TRA) in feces,"[3]; pooled fecal homogenate covering >90% of fecal excretion, N = 6, mean ± SD",94.9 ± 4.95%
same,% Dose in feces,"[3]; N = 6, mean ± SD",63.9 ± 8.60%
same,% Dose in feces,"[3]; N = 6, mean ± SD, listed as rucaparib",63.9% and ≈ 64%
